The record followed here is ChEMBL document CHEMBL3507680, “University of Dundee, Gates Library screen for HepG2 cell viability”.

SMILES strings stand for the structures.

The data set can be described thus: Human HepG2 cell viability assay in 384 well format. The class given is toxicity, cell-based. Also on record: dose 125 nL, time 70.5 hour; concentration not given beside the values. Conditions: HepG2 cells, read-out: Inhibition.
For `CS(=O)(=O)N1CCO[C@@H]2CN(Cc3ccc(F)cc3)C[C@@H]2C1`, the cytotoxicity at 70.5 h is -6.95%.
With `COCc1nn(CC2CC2)c2c1CN(C(=O)c1ccno1)CC2`, the cytotoxicity at 70.5 h is -3.21%.
In the case of `CCOCc1nn(C)c2c1CN(C(=O)c1ccno1)CC2`, the cytotoxicity at 70.5 h was -4.99%.
Under `Cn1cc(CN2CCC3(CCCN(C(=O)c4cnccn4)C3)C2)cn1` (centres undefined) stands -5.89%; under `CO[C@H]1CN(C(=O)c2ccc(C)o2)[C@@H]2CCCO[C@H]12`, -0.145%.
For `CNC(=O)C1Cn2ccnc2C2(CCN(Cc3csc(C)n3)CC2)O1` (centres undefined), the cytotoxicity at 70.5 h was -2.63%.
Regarding `CCn1c(SCC(=O)N2CCCC2)nc2cc(C)[nH]c2c1=O`, the cytotoxicity at 70.5 h stood at 36.5%.
Then `Cc1cc2nc(SCC(=O)N3CCCC3)n(C)c(=O)c2[nH]1`, with -3.73%.
On to `Cc1cc(-n2nnc(C(=O)O)c2-c2ccncc2)ccc1F`, for which the cytotoxicity at 70.5 h was -20%.
As to `CCc1ccc(-n2nnc(C(=O)O)c2-c2ccncc2)cc1`, the cytotoxicity at 70.5 h was -4.02%.
Take `CCc1ccc(C(O)CN2CCN(c3cccc(OC)c3)CC2)cc1` (centres undefined): the cytotoxicity at 70.5 h is -29.4%.
Take `O=C(O)c1nnn(-c2cc(F)cc(F)c2)c1-c1ccncc1`: the cytotoxicity at 70.5 h worked out at 8.43%.
In the case of `O=C(O)c1nnn(-c2ccc(C(F)(F)F)cc2)c1-c1ccncc1`, the cytotoxicity at 70.5 h was -26.2%.
For `CC(C)OCCCNC(=O)CC1(Cn2cnnn2)CCCCC1`, the cytotoxicity at 70.5 h is -8.88%.
Under `O=C(Cn1ccc2ccc(F)cc21)NCc1ccc(C(=O)O)cc1` stands 18%; under `O=C(COc1coc(CN2CCCCC2)cc1=O)c1ccc(Cl)cc1`, -23.2%.
Then `CC(C)CCNc1c(C#N)c2c(c3nncn13)CN(C)CC2`, with -3.96%; and `CN1CCc2c(C#N)c(NCc3ccccc3)n3cnnc3c2C1`, with 17.9%; and `CN1CCc2c(C#N)c(NCCN3CCOCC3)n3cnnc3c2C1`, with -3.13%.
`O=C(O)C1CCCN(C(=O)CCn2ccc3c(Br)cccc32)C1` (centres undefined): the cytotoxicity at 70.5 h is -12.2%.
In the case of `O=C(CCn1ccc2ccc(Cl)cc21)NCc1ccc(C(=O)O)cc1`, the cytotoxicity at 70.5 h is -0.8%.
As for `Cc1cccc(C(=O)Oc2cc(=O)n3cccc(C)c3n2)c1`, the cytotoxicity at 70.5 h is -5.1%.
For the compound `CCOc1ccccc1C(=O)Oc1cc(=O)n2cccc(C)c2n1`, the cytotoxicity at 70.5 h was -21.9%.
For the compound `Cc1cc(=O)n(CC(=O)NC(C)C)c(Nc2ccc(F)c(C)c2)n1`, the cytotoxicity at 70.5 h came out at 23.2%.
In the case of `CCC(C)NC(=O)Cn1c(Nc2cc(C)cc(C)c2)nc(C)cc1=O` (centres undefined), the cytotoxicity at 70.5 h turned out to be 0.214%.
In the case of `CC/N=c1\nc(NCC)nc2n1C(O)(Nc1cc(Cl)ccc1Cl)CS2` (centres undefined), the cytotoxicity at 70.5 h stood at 17.8%.
`Cc1cc(C)cc(Nc2nc(C)cc(=O)n2CC(=O)NC(C)C)c1`: the cytotoxicity at 70.5 h was -5.12%.
Then `COCCNC(=O)Cn1c(-c2cccc(F)c2)nc(C)c(CCO)c1=O`, with -7.96%; and `O=c1[nH]nc2c(S(=O)(=O)N3CCN(c4ccc(F)cc4)CC3)cccn12`, with 20.6%.
In the case of `N#Cc1cnc2ccccc2c1N1CCC(C(=O)O)CC1`, the cytotoxicity at 70.5 h is -4.5%.
Under `O=C(O)c1nc(SCc2ccc(F)cc2)ncc1Br` stands -7.86%; under `c1ccc(-c2nnc3sc(CCN4CCCC4)nn23)cc1`, -5.25%; under `CCOC(=O)C1CCN(C(=O)c2cc(F)ccc2-n2cnnn2)CC1`, 3.28%.
Turning to `NC(=O)C1CCN(C(=O)c2cc(Br)ccc2-n2cnnn2)CC1`, the cytotoxicity at 70.5 h was found to be 27.7%.
With `CSc1nc2ncc3c(=O)n(CCN4CCCCC4)ccc3n2n1`, the cytotoxicity at 70.5 h is -4.31%.
Then `COC(=O)C(NC(=O)Nc1ccc(C(C)=O)cc1)C(C)C` (centres undefined), with -5.76%; and `COC(=O)Cn1nc(-c2ccccc2F)ccc1=O`, with 19.4%; and `CC(=O)Cn1nc(-c2ccccc2F)ccc1=O`, with -3.88%.
Consider `CCN(CC)Cc1nnc2sc(-c3cc(C(C)C)[nH]n3)nn12`, for which the cytotoxicity at 70.5 h was -8.88%.
As for `NC(=O)c1c(NC(=O)CCC(=O)O)sc2c1CCc1ccccc1-2`, the cytotoxicity at 70.5 h was -9.16%.
Under `NC(=O)c1c(NC(=O)CCCC(=O)O)sc2c1CCc1ccccc1-2` stands 10.4%.
Regarding `Cc1cccc(CSc2ncc(Cl)c(C(=O)O)n2)c1`, the cytotoxicity at 70.5 h was -11%.
Take `O=C(O)c1nc(SCc2ccccc2)ncc1Br`: the cytotoxicity at 70.5 h was -8.29%.
Under `CCOc1cc(CNCCCn2ccnc2)cc(Cl)c1OCC` stands 19.9%; under `COc1ccc(Cl)cc1CNCCCn1ccnc1`, -2.31%.
On to `Cc1c(CNS(=O)(=O)c2cccc(COC(C)C)c2)cnn1C`, for which the cytotoxicity at 70.5 h is -5.71%.
As to `CCn1nc(C)c2nnn(CC(=O)Nc3ccccc3)c(=O)c21`, the cytotoxicity at 70.5 h is -10.7%.
As to `CC(C)CN1Cc2nc(N3CCC(O)CC3)ncc2C1=O`, the cytotoxicity at 70.5 h was found to be 12.9%.
With `COc1c(Br)c(C(=O)NC2CCCCC2)nn1C`, the cytotoxicity at 70.5 h is -15%.
Regarding `Cn1ncc(C(=O)N2CCN(S(C)(=O)=O)CC2)c1Cl`, the cytotoxicity at 70.5 h was 20.9%.
Then `CC(C)S(=O)(=O)N1CCN(C(=O)c2cnn(C)c2Cl)CC1`, with -12.2%.
Then `Cc1nn(C)c(C)c1NC(=O)CCn1ncc2ccc(Cl)cc21`, with -11.9%.
Take `CCn1nc(C)c2nnn(CC(=O)Nc3ccccc3F)c(=O)c21`: the cytotoxicity at 70.5 h was -4.52%.
Turning to `CCn1nc(C)c2nnn(CC(=O)Nc3cccc(F)c3)c(=O)c21`, the cytotoxicity at 70.5 h was -5.5%.
Consider `CCC(=O)Nc1nnc(CCOc2ccccc2)s1`, for which the cytotoxicity at 70.5 h is -2.19%.
Under `CCC(=O)Nc1nnc(CCOc2ccccc2OC)s1` stands -11.7%; under `COCc1nc(N(C)C)ncc1C(=O)Nc1ccc(Cl)cc1`, -11.1%.
Then `CCn1cc(NC(=O)CN2C(=O)CC(C)(C)c3ccccc32)cn1`, with -4.43%; and `Cc1cc(NC(=O)CN2C(=O)CC(C)(C)c3ccccc32)no1`, with -3%; and `CCOCCCNC(=O)c1nnn(Cc2ccccc2)c1OC`, with -4.93%.
Turning to `O=C(Nc1cc(-c2cccnc2)no1)C1CCCCC1`, the cytotoxicity at 70.5 h was -4.13%.
Under `CNC(=O)c1cc(-c2ccccc2)nc2ncnn12` stands 7.79%; under `COCCNC(=O)c1cc(C(C)C)nc(N2CCCCC2)n1`, -9.32%; under `CCN1CCN(C(=O)C2CC(=O)N(c3cnn(C(C)C)c3)C2)CC1` (centres undefined), -1.53%.
`CC(C)n1cc(N2CC(C(=O)N3CCc4ccccc4C3)CC2=O)cn1` (centres undefined): the cytotoxicity at 70.5 h is 26.3%.
For `NCc1n[nH]c(-c2cccc(F)c2)n1`, the cytotoxicity at 70.5 h was found to be 32.2%.
As for `COc1cc(-c2n[nH]c(CCN)n2)cc(OC)c1OC`, the cytotoxicity at 70.5 h is 22.8%.
Turning to `OCc1n[nH]c(-c2ccc(F)cc2)n1`, the cytotoxicity at 70.5 h was -13.2%.
Under `Cc1ccc2c(c1)c(C)cc(=O)n2CCC#N` stands 0.982%; under `CC(C)c1cc(C(=O)NCCCN(C)C)nc(N2CCCC2)n1`, -8.44%; under `CCn1nc(C)c2nc(C(C)C)nc(NCCOC)c21`, -5.06%.
Regarding `COc1cc2cc(C(=O)N[C@@H](C)C(=O)O)n(C)c2c(OC)c1OC`, the cytotoxicity at 70.5 h is -4.88%.
For `O=C(Cn1cc(I)cn1)N1CCCC1`, the cytotoxicity at 70.5 h is -3.36%.
On to `CC(C)NC(=O)c1n[nH]c(-n2cnnc2)n1`, for which the cytotoxicity at 70.5 h was -0.175%.
Consider `Cc1nc(N2CCN(C(=O)c3ccccc3)CC2)c2c(n1)c(C)nn2C`, for which the cytotoxicity at 70.5 h was -2.09%.
In the case of `CCn1cc(N2Cc3nc(N4CCN(C)CC4)ncc3C2=O)cn1`, the cytotoxicity at 70.5 h is -7.74%.
Consider `CCn1nc(C)c2nnn(CC(=O)Nc3cccc(Cl)c3)c(=O)c21`, for which the cytotoxicity at 70.5 h was -5.39%.
For the compound `Cc1nn(C)c2c(=O)n(CC(=O)Nc3cc(Cl)cc(Cl)c3)nnc12`, the cytotoxicity at 70.5 h is -0.624%.
Under `CCOCc1cccc(S(=O)(=O)N2CCSCC2)c1` stands -3.6%.
Under `CN1CCc2c(C#N)c(NCc3cccnc3)n3cnnc3c2C1` stands -27%; under `CCOc1ccc(Br)cc1-c1cc(N)[nH]n1`, -6.54%; under `O=C1N(CC2CC2)CCC12CCN(CC1CC1)CC2`, -6.9%.
Regarding `CC(C)CN1CCC2(CCN(CC3CC3)CC2)C1=O`, the cytotoxicity at 70.5 h was -8.5%.
On to `CC(C)CN1CCS(=O)(=O)[C@@H]2CCN(S(=O)(=O)CC(C)C)CC[C@@H]21`, for which the cytotoxicity at 70.5 h is -3.69%.
Consider `COCCN1CCC2(CCN(CC3CC3)CC2)C1=O`, for which the cytotoxicity at 70.5 h is -2.3%.
Consider `Cc1nc(CN2CCC3(CCCN(C(=O)c4cnccn4)C3)C2)cs1` (centres undefined), for which the cytotoxicity at 70.5 h is -2.34%.
In the case of `Cc1noc([C@@H]2C[C@@H]3CCN(CC4CC4)C[C@H]3O2)n1`, the cytotoxicity at 70.5 h is -4.17%.
As to `O=C(Cc1ccsc1)N1C[C@@H]2COC[C@]2(COCc2cccnc2)C1`, the cytotoxicity at 70.5 h was -0.0283%.
Under `Cc1ccccc1C(=O)N1C[C@@H]2COC[C@]2(COCc2cccnc2)C1` stands 2.96%.
Take `CCOC(=O)[C@]12CCCN(Cc3nccs3)C[C@H]1CN(S(C)(=O)=O)C2`: the cytotoxicity at 70.5 h was -6.29%.
Under `Cn1cnc(S(=O)(=O)N2C[C@H]3CN(Cc4ccccn4)C[C@H]3C2)c1` stands -1.38%.
For `CCN1C[C@H]2[C@@H](C1)N(c1ncc(F)cn1)CC[C@H]2OC`, the cytotoxicity at 70.5 h amounted to 14.2%.
Then `COc1ccc2c(c1)C1(CCN(Cc3nccs3)CC1)N(C)CC2`, with 5.77%; and `O=C1NCC[C@]12CN(Cc1ccncc1)C[C@H]2c1ccccc1`, with -1.85%.
For `O=C1NCC[C@]12CN(Cc1cccnc1)C[C@H]2c1ccccc1`, the cytotoxicity at 70.5 h is -3.58%.
As to `CCOC(=O)[C@]12CCCN(Cc3nccs3)C[C@H]1CN(CCOC)C2`, the cytotoxicity at 70.5 h is -1.13%.
Then `CCOC(=O)[C@]12CCCN(Cc3nccs3)C[C@H]1CN(C(C)C)C2`, with -3.32%.
Take `Cc1ccc(CN2CCC3(CC2)CC3CN(C)Cc2cccnc2)o1` (centres undefined): the cytotoxicity at 70.5 h was -5.02%.
On to `O=C(CN(C1=NCCCC1)c1ccccc1)c1ccc2c(c1)OCCO2`, for which the cytotoxicity at 70.5 h was -16.3%.
